The values below come from PubChem BioAssay (NCI).

Structures are written as SMILES. Where “and” joins values, the source holds several entries; their conditions need not be identical. Identical values can stand only once.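 These data come from cells grown in 96-well plates and exposed to compound for 48 hours at five concentrations. GI50: concentration for 50% inhibition of growth. Definition used: TGI = concentration required for complete inhibition of growth.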 Where a SMILES comes first, the peptide text is derived from it. [ ]: non-standard residue; d: D form. The star is where a group is joined. Decanoyl = CCCCCCCCCC(=O)*; Leu(ol) = CC(C)C[C@H](N)CO; Iva = CC[C@](C)(N)C(=O)O; Aib = CC(C)(N)C(=O)O Where only a bound is given, the exact number is not on record here.

In the experiment the test system is MDA-MB-468 breast. The experiment in a line: NCI anticancer screen, dose series, 48 h.
On to `N#Cc1c(-c2ccc(Cl)cc2)csc1NC(=O)Nc1ccc(Cl)c(C(F)(F)F)c1`, for which the GI50 is 186 nM and the TGI was found to be 1510 nM.

Turning to `O=C(Nc1ccc(-n2cc(-c3ccncc3)c(-c3ccc(O)c(Cl)c3)n2)cc1)c1cc(C(F)(F)F)cc(C(F)(F)F)c1`, the GI50 was 6060 nM and the TGI is above 25000 nM.

As for `Nc1n[n+](=O)c2ccccc2n1O`, the GI50 was 19600 nM and the TGI came out at 67000 nM.

Take `Cc1c([C@H](C(Cl)Cl)[C@H](O)[C@H]2C[C@H](C)C(=O)O2)ccc2c1C(=O)[C@H]1[C@H]2C[C@@H](Br)[C@@]23O[C@@H](CO[C@H]2O)CC13C` (some centres undefined): the GI50 was 129 nM and the TGI is 922 nM.

Regarding `COc1ccc(-c2c(-c3cc(OC)c(OC)c(OC)c3)nc3sc(C4CC4)nn23)cc1OC`, the GI50 is 1900 nM and the TGI turned out to be 31400 nM.

In the case of `O=C(NC(=S)Nc1ccccn1)c1ccccc1`, the GI50 is 12500 nM and the TGI is above 100000 nM.

In the case of `COc1cc(/C=C/C(=O)c2ccc(Nc3nc(Nc4ccc(F)cc4)nc(Nc4ccc(Cl)cc4)n3)cc2)cc(OC)c1OC`, the GI50 was 1340 nM and the TGI turned out to be 3750 nM.

Regarding `COc1ncc(-c2ccc3nccc(C#CCCCCC(=O)O)c3c2)cc1NS(=O)(=O)c1ccc(F)cc1F`, the GI50 was 132 nM and the TGI came out at 1900 nM.

As to `C=CCn1c(SCC(=O)Nc2ccc(C(=O)/C=C/c3cc(OC)c(OC)c(OC)c3)cc2)nnc1-c1ccc(Cl)cc1`, the GI50 was 3470 nM and the TGI came out at 26600 nM.

In the case of `O=C(Nc1cccc(-n2ccc3c(NC(=O)c4ccccc4)nccc32)c1)Nc1ccc(Cl)c(C(F)(F)F)c1`, the GI50 is 257 nM and the TGI came to 3360 nM.

As for `COc1cc(/C=C/C(=O)Nc2ccc3c(c2)/C(=C\c2cccn2C)C(=O)N3)cc(OC)c1OC`, the GI50 is 3390 nM and the TGI was 25200 nM.

With `C#Cc1ccc(NC(=O)c2ccc(/C=C/C(=O)c3nccn3C)cc2)c(F)c1`, the GI50 was 1240 nM and the TGI was 4420 nM.

For `CCCCCCCCCC(=O)NC(C)(C)C(=O)N1CCC[C@H]1C(=O)N[C@@H](CC(C)C)C(=O)N[C@@](C)(CC)C(=O)N[C@@H](CCC(N)=O)C(=O)N[C@H](CCC(N)=O)C(=O)NC(C)(C)C(=O)NC(C)(C)C(=O)N[C@@H](CCC(N)=O)C(=O)N[C@H](CC(C)C)C(=O)N[C@H](CO)CC(C)C` (Decanoyl-[Aib]PL[Iva]Q[dQ][Aib][Aib]Q[dL][Leu(ol)]), the GI50 was 1790 nM and the TGI worked out at 3340 nM.

Take `CCOC(=O)c1ccc2c(c1)[n+](=O)c(C(=O)C1CCCS1)c(C(F)(F)F)n2[O-]` (centres undefined): the GI50 was 250 nM and the TGI was 967 nM.

For the compound `COC(=O)[C@@H](C)C[C@H](Cc1ccccc1)NC(=O)c1cccc([C@@H](C[C@H](C(C)C)N(C)C(=O)[C@@H](NC(=O)[C@H]2CCCCN2C)C2CC2)OC(C)=O)n1`, the GI50 was 3.33 nM; the TGI is 33300 nM and > 100000 nM.

With `COc1ccc(-c2nnc(COc3ccc(Cl)cc3Cl)o2)cc1OC`, the GI50 is 7320 nM and the TGI was found to be 54400 nM.

As for `O=[N+]([O-])c1ccc(C(Br)c2ccc([N+](=O)[O-])cc2)cc1`, the GI50 was 11500 nM and the TGI was determined as 25900 nM.

For `COc1cccc2c1C(=O)c1c(O)c3c(c(O)c1C2=O)CC(O)(/C(C)=N/NC(=O)CCCCC(=O)N/N=C(\C)C1(O)Cc2c(O)c4c(c(O)c2C(OC2CC(N)C(O)C(C)O2)C1)C(=O)c1c(OC)cccc1C4=O)CC3OC1CC(N)C(O)C(C)O1` (centres undefined), the GI50 is 93.5 nM and the TGI was found to be 251 nM.

As to `Cn1c(=O)n(CCCO)c(=O)c2c1nc(Oc1cccc(OC(F)(F)F)c1)n2Cc1ccc(Cl)cc1`, the GI50 is 12900 nM and the TGI worked out at 29900 nM.

`Oc1ccc(CSc2nnc(-c3ccc(Cl)cc3)n2-c2ccccc2)c2cccnc12`: the GI50 was 1190 nM and the TGI was above 100000 nM.

For the compound `NS(=O)(=O)c1ccc(N=Cc2c(O)[nH]c3ccc4ncsc4c23)cc1`, the GI50 is 488 nM and 472 nM; the TGI is 1140 nM and 1080 nM.

As to `N#C/C(=C\c1cn(Cc2ccccc2)c2ccccc12)C(=O)Nc1ncc(Cc2ccccc2Cl)s1`, the GI50 is 1840 nM and the TGI was 4680 nM.

On to `CC1(C)CCC2(CC1)N[C@@H](C(=O)N[C@@H]1CC[C@@H](C(N)=O)OC1)[C@H](c1ccnc(Cl)c1F)[C@]21C(=O)Nc2cc(Cl)ccc21`, for which the GI50 is 2240 nM and the TGI amounted to 5630 nM.

As for `C=C1C(=O)O[C@H]2[C@H]1CC/C(CNC(=O)c1cccc3ccccc13)=C\CC[C@@]1(C)O[C@@H]21`, the GI50 is 1380 nM and the TGI came out at 4240 nM.

As for `CCNCCCn1c2c(c3ccc(F)cc3c1=O)C(=O)c1cc(OC)cnc1-2`, the GI50 was 139 nM and the TGI came to 312 nM.

Take `C=C1CC2(OC1=O)C(=O)N(C)c1ccc(I)cc12` (centres undefined): the GI50 is 537 nM and the TGI is 2760 nM.

As to `C=C1c2c(C)nn(-c3ccc(OC)cc3)c2N(C)C23C[C@@H]1C1(C)c4c(C)nn(-c5ccc(OC)cc5)c4N(C)C(C)(C[C@H]12)C3` (some centres undefined), the GI50 was 2500 nM and the TGI is 12800 nM.

For the compound `O=C(/C=C/c1cc2ccccc2[nH]c1=O)c1ccc(Cl)cc1`, the GI50 was 17400 nM and the TGI worked out at 35200 nM.

In the case of `CCOc1ccc(C(=O)Nc2ncc(Cc3ccc(F)cc3)s2)cc1`, the GI50 is 266 nM and the TGI was above 100000 nM.

On to `COc1cc(C(=O)c2c(-c3ccccc3)oc3c(OC)cccc23)cc(OC)c1O`, for which the GI50 was 936 nM and the TGI came to 7220 nM.

Take `C1=C/COCc2cc(ccc2OCCN2CCCC2)Nc2nccc(n2)-c2cccc(c2)COC/1`: the GI50 is 396 nM and 562 nM; the TGI is 1480 nM and 2010 nM.

Regarding `COC1=CC(=O)c2c(ccc3ncnc(N)c23)C1=O`, the GI50 was 1140 nM and the TGI turned out to be 2770 nM.

Take `Brc1ccc(SCN(CSc2ccc(Br)cc2)Cc2ccccc2)cc1`: the GI50 was 6450 nM and the TGI is 30600 nM.

As for `C[CH2][Sn]([CH2]C)([O]C(=O)c1cccc(OC)c1)[O][Sn]([CH2]C)([CH2]C)[O]C(=O)c1cccc(OC)c1`, the GI50 was 5530 nM and the TGI turned out to be 20800 nM.

Take `O=c1c2c([nH]c3ccccc13)CCCC2`: the GI50 is 16700 nM and the TGI is above 100000 nM.

`CCCSc1ccc2nc(NC(=O)OC)[nH]c2c1`: the GI50 was 210 nM and the TGI turned out to be 702 nM.

On to `COc1ccc2c(c1)oc1c(C)c3c(c(C)c12)C(=O)N(N)C3=O`, for which the GI50 was above 100000 nM and the TGI was above 100000 nM.
